Data on one compound can be found in patent US20090197934A1, “IMIDAZOLINYLMETHYL ARYL SULFONAMIDE” (priority 2008, published 2009).

In one data set the target is T1, alpha-1A adrenoceptors (Homo sapiens, UniProt P35348).
T1 sequence (P35348 1-466): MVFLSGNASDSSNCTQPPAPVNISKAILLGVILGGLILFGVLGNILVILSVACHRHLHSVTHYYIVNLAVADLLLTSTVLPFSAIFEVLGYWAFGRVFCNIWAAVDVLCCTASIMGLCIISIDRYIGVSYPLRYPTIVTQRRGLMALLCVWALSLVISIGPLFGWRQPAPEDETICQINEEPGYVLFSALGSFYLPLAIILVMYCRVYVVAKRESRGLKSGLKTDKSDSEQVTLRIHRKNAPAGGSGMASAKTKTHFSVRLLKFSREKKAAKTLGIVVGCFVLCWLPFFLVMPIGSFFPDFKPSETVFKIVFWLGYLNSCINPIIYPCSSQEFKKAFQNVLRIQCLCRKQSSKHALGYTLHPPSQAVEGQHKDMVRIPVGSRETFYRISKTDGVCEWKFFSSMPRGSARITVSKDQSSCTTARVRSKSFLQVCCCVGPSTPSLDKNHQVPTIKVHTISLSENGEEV
The experiment in a line: alpha-1A adrenoceptor partial agonist activity (intrinsic activity and pEC50). Type of data set: cell-based.

Data set [1] deals with Female Yucatan Micro-Swine. The data set can be described thus: Conscious Pig Model (IUP, MAP and HR during iv infusion). Type of data set: in vivo. The method, then: In general, IUP is the intraurethral pressure and is measured as the 2 minute mean from the first peak of the urethral response (FIG. 1). MAP is the mean arterial blood pressure and is measured as the average blood pressure during the 2 minute section where IUP is measured. The durability is the slope of the IUP response in mmHg/min and is calculated immediately after the 2 minute IUP response for 5 minutes (2-7 minutes post the first peak) for the top 3 doses.
Sling Training: Female Yucatan Micro-Swine were trained to stay in a sling for up to 4 hours. Swine were exposed to progressively longer sling durations per IACUC sling-training guideline.
Surgical Instrumentation: Female Yucatan Micro-swine were instrumented with a telemetry device with both pressure and ECG monitoring capabilities (Data Sciences International St Paul Minn.). In addition, a Bardport low profile titanium VAP was placed subcutanteously for blood sampling. All devices were implanted by the surgical veterinarian at Roche Palo Alto. Briefly, the telemetry probe body was placed subcutaneously in the cervical region. The intra-arterial pressure catheter was advanced via the superficial cervical artery into the subclavian artery for blood pressure measurement. The ECG leads were placed intra-muscularly: one in the intercostal muscle between the T8-T10 regions on the left side, and the other in the intercostal muscles between the T1-T3 regions on the right side. The VAP was placed subcutaneously in the neck region, with the catheter advanced into the jugular vein. Swine were allowed to fully recover from the surgery (typically 10 days). […]
Experiment: After the swine was fully awake and stable (usually approximately 1 hour post wake up), baseline blood pressure, IUP, and heart rate parameters were determined. […]
Data Generating and Analysis Systems: Cardiovascular readings were generated by the TL11M3-D70-PCP (Data Sciences International, St. Paul, Minn.) telemetry device and associated hardware. […] IUP was monitored by a solid state catheter connected to a TA6000 Polygraph (Data Sciences International, St. Paul, Minn.). […]

Regarding `CS(=O)(=O)Nc1cc(F)c(CC2=NCCN2)c(Br)c1Cl` [Formula I, N-[3-Bromo-2-chloro-4-(4,5-dihydro-1H-imidazol-2-ylmethyl)-5-fluoro-phenyl]-methanesulfonamide], at alpha-1A adrenoceptors (ideally between 0.35 to 0.60), the “intrinsic activity, or efficacy, as a partial agonist” value came out at 0.45. Besides, on alpha-1A adrenoceptors (read-out: affinity, or pEC50 value (converted)), the EC50 is 316 nM. In data set [1], the “maximum arterial blood pressure effect” value is “low” and the “selectivity for enhancement of intraurethral pressure (IUP) over blood pressure (MAP)” value is “selectivity for enhancement of intraurethral pressure (IUP) over blood pressure (MAP)”. Further, the “durability of IUP response over time” value in data set [1] (compared to analogue compound lacking the 3-bromo and 5-fluoro substituents (FIG. 1b vs FIG. 1c)) is given as “unexpectedly increased durability of IUP response over time”.
